# Laboratory results reported in patent publication US20250346592A1 (Celgene Corporation, priority 2022, published 2025).
# Target: hPAD4 enzyme (Homo sapiens (Human), UniProt Q9UM07)
# Experiment: RFMS2 assay (RapidFire mass spectrometry, TSTGGRQGSHH peptide substrate)
# Type: biochemical
# Conditions: 35 nM recombinant human PAD4, 500 μM TSTGGRQGSHH peptide, 30 minutes at room temperature; read-out: RFMS 2 IC50
# Procedure: Stock compounds were dissolved and stored in 100% DMSO. Compound solutions were prepared via serial dilution at 3-fold intervals in DMSO with top compound concentration at 20 μM in each assay. 0.25 μl of compound solution was transferred from the compound plate to the assay plate by using an acoustic dispenser.
# • Total reaction volume: 25 μl • Assay buffer: […] pH 7.4, 200 mM NaCl, 2 mM CaCl2, 5 mM DTT • 35 nM recombinant human PAD4 • 500 μM TSTGGRQGSHH peptide • 1.2% DMSO • Stop solution: 10% formic acid
# Reaction mixtures were incubated at room temperature for 30 minutes. 10 μl each of the reaction mixtures was then mixed with 40 μl of 10% formic acid in a microtiter plate. The plate was frozen at −80° C. before shipping out on dry ice for RapidFire mass spectroscopy analysis.
# Thawed samples were loaded onto the Rapid Fire 300 system (Agilent) wherein they were first sipped for 250 ms and then loaded onto a Agilent “C” (C18) cartridge using a mobile phase of water containing 0.09% formic acid/0.01% trifluoroacetic acid for 3000 ms desalting flowing at a rate of 1.5 ml/min. Once the samples were loaded and washed, a mobile phase of acetonitrile containing 0.09% formic acid/0.01% trifluoroacetic acid was used to elute the samples directly onto a Sciex API4000 triple quadrupole mass spectrometer for 3000 ms at a flow rate of 1.25 ml/min.
# MRM transitions for substrate and product were monitored in positive ESI mode at m/z=562.3/969.7 and m/z=562.8/541.3 respectively. The dwell time for each transition was set at 100 ms, and the ESI voltage was used at 5500 with a source temperature of 650° C. Extracted ion peaks for each transition were integrated using the Rapid Fire Integrator software.
# Compounds having an activity designated as “A” provided an IC50≤10 nM; compounds having an activity designated as “B” provided an IC50 11-100 nM; compounds having an activity designated as “C” provided an IC50 101-500 nM; compounds having an activity designated as “D” provided an IC50 501-1000 nM; compounds having an activity designated as “E” provided an IC50>1000 nM.
# hPAD4 enzyme, sequence (Q9UM07 whole entry): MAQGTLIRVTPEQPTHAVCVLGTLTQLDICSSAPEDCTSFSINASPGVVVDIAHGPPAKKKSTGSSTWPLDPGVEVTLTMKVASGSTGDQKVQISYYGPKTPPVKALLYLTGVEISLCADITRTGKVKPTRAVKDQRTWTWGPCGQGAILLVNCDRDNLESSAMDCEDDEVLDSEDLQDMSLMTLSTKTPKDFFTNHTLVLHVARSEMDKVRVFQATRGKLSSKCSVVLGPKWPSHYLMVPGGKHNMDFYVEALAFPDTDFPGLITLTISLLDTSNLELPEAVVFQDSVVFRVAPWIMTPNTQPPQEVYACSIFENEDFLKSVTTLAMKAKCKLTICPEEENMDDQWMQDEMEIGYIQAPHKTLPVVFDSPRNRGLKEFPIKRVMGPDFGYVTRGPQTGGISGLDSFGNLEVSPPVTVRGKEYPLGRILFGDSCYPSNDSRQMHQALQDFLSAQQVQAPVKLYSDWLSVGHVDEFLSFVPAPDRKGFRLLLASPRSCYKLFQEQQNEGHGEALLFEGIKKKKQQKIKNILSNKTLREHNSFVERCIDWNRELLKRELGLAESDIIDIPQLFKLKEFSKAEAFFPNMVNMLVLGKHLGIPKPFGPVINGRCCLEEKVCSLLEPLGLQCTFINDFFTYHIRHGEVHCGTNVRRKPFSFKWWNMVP
row,Compound,IC50
1,"COCC(C)c1ccc2cc(-c3nc4cc5c(cc4n3C)CCN(C[C@@H](C)N)C5=O)n(CC3CC3)c2c1 (single isomer, unassigned) [Example 40]",> 1000 nM
2,"COCC(C)c1ccc2cc(-c3nc4cc5c(cc4n3C)CCN(C[C@@H](C)N)C5=O)n(CC3CC3)c2c1 (single isomer, unassigned) [Example 41]",101 to 500 nM
3,"CCN[C@H](C)CN1CCc2cc3c(cc2C1=O)nc(-c1cc2ccccc2n1CC1CC1)n3C [Example 2, (R)-2-(1-(cyclopropylmethyl)-1H-indol-2-yl)-6-(2-(ethylamino)propyl)-1-methyl-1,6,7,8-tetrahydro-5H-imidazo[4,5-g]isoquinolin-5-one]",501 to 1000 nM
4,"CCCN[C@H](C)CN1CCc2cc3c(cc2C1=O)nc(-c1cc2ccccc2n1CC1CC1)n3C [Example 4, (R)-2-(1-(cyclopropylmethyl)-1H-indol-2-yl)-1-methyl-6-(2-(propylamino)propyl)-1,6,7,8-tetrahydro-5H-imidazo[4,5-g]isoquinolin-5-one]",> 1000 nM
5,"Cn1c(-c2cc3ccccc3n2CC2CC2)nc2cc3c(cc21)CCN(CC(N)CC(F)(F)F)C3=O (stereo not shown) [Example 7, 6-(2-amino-4,4,4-trifluorobutyl)-2-(1-(cyclopropylmethyl)-1H-indol-2-yl)-1-methyl-1,6,7,8-tetrahydro-5H-imidazo[4,5-g]isoquinolin-5-one]",> 1000 nM
6,"Cn1c(-c2cc3ccccc3n2CC2CC2)nc2cc3c(cc21)CCN(CC1CNCCN1)C3=O (stereo not shown) [Example 8, 2-(1-(cyclopropylmethyl)-1H-indol-2-yl)-1-methyl-6-(piperazin-2-ylmethyl)-1,6,7,8-tetrahydro-5H-imidazo[4,5-g]isoquinolin-5-one]",> 1000 nM
7,"Cc1ccc2cc(-c3nc4cc5c(cc4n3C)CCN(C[C@@H](C)N)C5=O)n(CC3CC3)c2c1C [Example 16, (R)-6-(2-aminopropyl)-2-(1-(cyclopropylmethyl)-6,7-dimethyl-1H-indol-2-yl)-1-methyl-1,6,7,8-tetrahydro-5H-imidazo[4,5-g]isoquinolin-5-one]",101 to 500 nM
8,"Cc1cccc2cc(-c3nc4cc5c(cc4n3C)CCN(C[C@@H](C)N)C5=O)n(CC3CC3)c12 [Example 17, (R)-6-(2-aminopropyl)-2-(1-(cyclopropylmethyl)-7-methyl-1H-indol-2-yl)-1-methyl-1,6,7,8-tetrahydro-5H-imidazo[4,5-g]isoquinolin-5-one]",101 to 500 nM
9,"COc1ccc2cc(-c3nc4cc5c(cc4n3C)CCN(C[C@@H](C)N)C5=O)n(CC3CC3)c2c1 [Example 18, (R)-6-(2-aminopropyl)-2-(1-(cyclopropylmethyl)-6-methoxy-1H-indol-2-yl)-1-methyl-1,6,7,8-tetrahydro-5H-imidazo[4,5-g]isoquinolin-5-one]",101 to 500 nM

# The next lines start with the values.
row,IC50,Compound
1,> 1000 nM,"COCC(C)n1c(-c2nc3cc4c(cc3n2C)CCN(C[C@H](N)CF)C4=O)cc2cccc(OC)c21 (single isomer, unassigned) [Example 123a]"
2,101 to 500 nM,"COc1cccc2cc(-c3nc4cc5c(cc4n3C)CCN(C[C@H](N)CF)C5=O)n(CC(C)OC)c12 (single isomer, unassigned) [Example 130]"
3,501 to 1000 nM,"COc1cccc2cc(-c3nc4cc5c(cc4n3C)CCN(C[C@H](N)CF)C5=O)n(CC(C)OC)c12 (single isomer, unassigned) [Example 131]"
4,101 to 500 nM,"Cn1c(-c2cc3cccc(OCCC4CNC(=O)C4)c3n2CC2CC2)nc2cc3c(cc21)CCN(C[C@H](N)CF)C3=O (single isomer, unassigned) [Example 178]"
5,101 to 500 nM,"Cn1c(-c2cc3cccc(OCCC4CNC(=O)C4)c3n2CC2CC2)nc2cc3c(cc21)CCN(C[C@H](N)CF)C3=O (single isomer, unassigned) [Example 179]"
6,501 to 1000 nM,"Cn1c(-c2cc3cccc(OCC4(C)CNC(=O)C4)c3n2CC2CC2)nc2cc3c(cc21)CCN(C[C@H](N)CF)C3=O (single isomer, unassigned) [Example 220]"
7,101 to 500 nM,"Cn1c(-c2cc3cccc(OCC4(C)CNC(=O)C4)c3n2CC2CC2)nc2cc3c(cc21)CCN(C[C@H](N)CF)C3=O (single isomer, unassigned) [Example 221]"
